In patent US20220332708A1 (Cytokinetics, Inc., priority 2021, published 2022) one finds AC1.4 data, which are given here for 27 compounds.

The test system of the test is Bovine cardiac myofibrils. The test is described as follows: Dose-dependent myofibril ATPase modulation (calcium-buffered, pyruvate kinase and lactate dehydrogenase-coupled ATPase assay at pCa25). Format: biochemical. To be noted: concentration at which ATPase activity was 1.4-fold higher than the bottom of the dose curve, mean of a minimum of two independent tests. Here is the method:
In Vitro Model of Dose-Dependent Myofibril ATPase Modulation
Dose responses were measured using a calcium-buffered, pyruvate kinase and lactate dehydrogenase-coupled ATPase assay containing the following reagents (concentrations expressed are final assay concentrations): Potassium PIPES (12 mM), MgCl2 (2 mM), ATP (1 mM), DTT (1 mM), BSA (0.1 mg/ml), NADH (0.5 mM), PEP (1.5 mM), pyruvate kinase (4 U/ml), lactate dehydrogenase (8 U/ml), and antifoam (90 ppm). The pH was adjusted to 6.80 at 22° C. by addition of potassium hydroxide. Calcium levels were controlled by a buffering system containing 0.6 mM EGTA and varying concentrations of calcium, to achieve a free calcium concentration of 1×10^−4 M to 1×10^−8 M.
Bovine cardiac myofibrils were obtained by homogenizing the appropriate tissue in the presence of detergent. Such treatment removes membranes and majority of soluble cytoplasmic proteins but leaves intact cardiac sarcomeric acto-myosin apparatus. Concentrations of myofibrils were adjusted to achieve the necessary rate of ATP hydrolysis (typically 0.25-1.0 mg/ml).
Chemical entity dose responses were measured at the calcium concentration corresponding to 25% of maximal ATPase activity (pCa25), so a preliminary experiment was performed to test the response of the ATPase activity to free calcium concentrations in the range of 1×10^−4 M to 1×10^−8 M. Subsequently, the assay mixture was adjusted to the pCa25. Assays were performed by first preparing a dilution series of test chemical entity, each with an assay mixture containing potassium Pipes, MgCl2, BSA, DTT, pyruvate kinase, lactate dehydrogenase, myofibrils, antifoam, EGTA, CaCl2), and water. The assay was started by adding an equal volume of solution containing potassium Pipes, MgCl2, BSA, DTT, ATP, NADH, PEP, antifoam, and water. ATP hydrolysis was monitored by absorbance at 340 nm. The resulting dose response curve was fit by the 4 parameter equation y=Bottom+((Top−Bottom)/(1+((EC50/X)^Hill))). […] AC1.4 values reported in the table below are mean values based on a minimum of two independent tests.

With `CNc1cc2c(cc1S(=O)(=O)N[C@]1(C)C[C@H](Nc3cccc(F)c3)C1)c(=O)[nH]c(=O)n2C` [Compound 23, N-((cis)-3-((3-fluorophenyl)amino)-1-methylcyclobutyl)-1-methyl-7-(methylamino)-2,4-dioxo-1,2,3,4-tetrahydroquinazoline-6-sulfonamide], the AC1.4 was 0.6045 µM.

Take `CNc1cc2nc(C)[nH]c(=O)c2cc1S(=O)(=O)NC1CC(c2cccc(F)c2)C1` (stereo not drawn) [Compound 24, N-(3-(3-fluorophenyl)cyclobutyl)-2-methyl-7-(methylamino)-4-oxo-3,4-dihydroquinazoline-6-sulfonamide]: the AC1.4 amounted to 5.6964 µM.

Regarding `CNc1cc2c(cc1S(=O)(=O)N[C@H]1C[C@@H](Nc3ccc(F)cc3)C1)c(=O)[nH]c(=O)n2C` [Compound 25, N-((cis)-3-((4-fluorophenyl)amino)cyclobutyl)-1-methyl-7-(methylamino)-2,4-dioxo-1,2,3,4-tetrahydroquinazoline-6-sulfonamide], the AC1.4 is 1.8965 µM.

Consider `CNc1cc2c(cc1S(=O)(=O)N[C@H](C)Cc1cc3ccc(F)cc3[nH]1)c(=O)[nH]c(=O)n2C` [Compound 26, (R)-N-(1-(6-fluoro-1H-indo1-2-yl)propan-2-yl)-1-methyl-7-(methylamino)-2,4-dioxo-1,2,3,4-tetrahydroquinazoline-6-sulfonamide], for which the AC1.4 was found to be 2.215 µM.

For the compound `CNc1cc2nc(C)[nH]c(=O)c2cc1S(=O)(=O)NC1CCc2c([nH]c3ccccc23)C1` (stereo not drawn) [Compound 28, 2-Methyl-7-(methylamino)-4-oxo-N-(2,3,4,9-tetrahydro-1H-carbazol-2-yl)-3,4-dihydroquinazoline-6-sulfonamide], the AC1.4 was 0.2504 µM.

Consider `CNc1cc2nc(C)[nH]c(=O)c2cc1S(=O)(=O)NC(C)Cc1[nH]c2ccccc2c1C` (stereo not drawn) [Compound 29, 2-Methyl-N-(1-(3-methyl-1H-indo1-2-yl)propan-2-yl)-7-(methylamino)-4-oxo-3,4-dihydroquinazoline-6-sulfonamide], for which the AC1.4 was 8.204 µM.

As to `CCOC(=O)c1cc(S(=O)(=O)Nc2ccc(N3C[C@H](C)C[C@@H](C)C3)nc2)[nH]c1C` [Compound 30, Ethyl 5-(N-(6-((3R,5R)-3,5-dimethylpiperidin-1-yl)pyridin-3-yl)sulfamoyl)-2-methyl-1H-pyrrole-3-carboxylate], the AC1.4 was 0.4832 µM.

Consider `Cc1[nH]c(S(=O)(=O)NC23COc4cc(F)c(Cl)cc4C2C3)cc1C(=O)N1CC(C)(C#N)C1` (stereo not drawn) [Compound 31, N-(6-chloro-5-fluoro-1,7b-dihydrocyclopropa[c]chromen-1a(2H)-yl)-4-(3-cyano-3-methylazetidine-1-carbonyl)-5-methyl-1H-pyrrole-2-sulfonamide], for which the AC1.4 worked out at 1.274 µM.

As to `CNc1cc2nc(C)[nH]c(=O)c2cc1S(=O)(=O)N[C@H]1CCc2c([nH]c3ccccc23)C1` [Compound 32, (S)-2-Methyl-7-(methylamino)-4-oxo-N-(2,3,4,9-tetrahydro-1H-carbazol-2-yl)-3,4-dihydroquinazoline-6-sulfonamide], the AC1.4 was 5.8178 µM.

`CNc1cc2nc(C)[nH]c(=O)c2cc1S(=O)(=O)NCCc1cc2ccccc2[nH]1` [Compound 34]: the AC1.4 came out at 13.2484 µM.

With `CNC(=O)c1cc(S(=O)(=O)NC2CCc3c([nH]c4ccccc34)C2)[nH]c1C` (stereo not drawn) [Compound 35, N,2-dimethyl-5-(N-(2,3,4,9-tetrahydro-1H-carbazol-2-yl)sulfamoyl)-1H-pyrrole-3-carboxamide], the AC1.4 was 6.2537 µM.

Consider `Cc1[nH]c(S(=O)(=O)NC2CCc3c([nH]c4ccccc34)C2)cc1C(=O)N(C)C` (stereo not drawn) [Compound 36, N,N,2-trimethyl-5-(N-(2,3,4,9-tetrahydro-1H-carbazol-2-yl)sulfamoyl)-1H-pyrrole-3-carboxamide], for which the AC1.4 was 6.922 µM.

Turning to `COCCNC(=O)c1cc(S(=O)(=O)NC2CCc3c([nH]c4ccccc34)C2)[nH]c1C` (stereo not drawn) [Compound 37, N-(2-methoxyethyl)-2-methyl-5-(N-(2,3,4,9-tetrahydro-1H-carbazol-2-yl)sulfamoyl)-1H-pyrrole-3-carboxamide], the AC1.4 turned out to be 2.9421 µM.

For the compound `Cc1[nH]c(S(=O)(=O)N[C@@H]2CCc3c([nH]c4ccccc34)C2)cc1C(N)=O` [Compound 38, (R)-2-methyl-5-(N-(2,3,4,9-tetrahydro-1H-carbazol-2-yl)sulfamoyl)-1H-pyrrole-3-carboxamide], the AC1.4 came out at 4.3985 µM.

Regarding `Cc1[nH]c(S(=O)(=O)N[C@@H]2CCc3c([nH]c4ccccc34)C2)cc1C(=O)NCCO` [Compound 39, (R)-N-(2-hydroxyethyl)-2-methyl-5-(N-(2,3,4,9-tetrahydro-1H-carbazol-2-yl)sulfamoyl)-1H-pyrrole-3-carboxamide], the AC1.4 was 1.722 µM.

For `Cc1[nH]c(S(=O)(=O)N[C@@H]2CCc3c([nH]c4ccccc34)C2)cc1C(=O)N1CC(C)(C)C1` [Compound 40, (R)-4-(3,3-dimethylazetidine-1-carbonyl)-5-methyl-N-(2,3,4,9-tetrahydro-1H-carbazol-2-yl)-1H-pyrrole-2-sulfonamide], the AC1.4 came out at 0.0608 µM.

Consider `Cc1[nH]c(S(=O)(=O)N[C@@H]2CCc3c([nH]c4ccccc34)C2)cc1C(=O)N1CCC1` [Compound 41, (R)-4-(azetidine-1-carbonyl)-5-methyl-N-(2,3,4,9-tetrahydro-1H-carbazol-2-yl)-1H-pyrrole-2-sulfonamide], for which the AC1.4 came out at 0.2434 µM.

Take `Cc1[nH]c(S(=O)(=O)N[C@@H]2CCc3c([nH]c4ccccc34)C2)cc1C(=O)N1CC(F)(F)C1` [Compound 42, (R)-4-(3,3-difluoroazetidine-1-carbonyl)-5-methyl-N-(2,3,4,9-tetrahydro-1H-carbazol-2-yl)-1H-pyrrole-2-sulfonamide]: the AC1.4 was determined as 0.06395 µM.

On to `Cc1[nH]c(S(=O)(=O)N[C@@H]2CCc3c([nH]c4ccccc34)C2)cc1C(=O)N1CC(C)(O)C1` [Compound 43], for which the AC1.4 is 0.1254 µM.

Turning to `Cc1[nH]c(S(=O)(=O)N[C@@H]2CCc3c([nH]c4ccccc34)C2)cc1C(=O)NCCF` [Compound 44, (R)-N-(2-fluoroethyl)-2-methyl-5-(N-(2,3,4,9-tetrahydro-1H-carbazol-2-yl)sulfamoyl)-1H-pyrrole-3-carboxamide], the AC1.4 amounted to 0.906 µM.

As to `Cc1[nH]c(S(=O)(=O)N[C@@H]2CCc3c([nH]c4ccccc34)C2)cc1C(=O)NCC(F)(F)F` [Compound 45, (R)-2-methyl-5-(N-(2,3,4,9-tetrahydro-1H-carbazol-2-yl)sulfamoyl)-N-(2,2,2-trifluoroethyl)-1H-pyrrole-3-carboxamide], the AC1.4 is 0.4627 µM.

As for `Cc1[nH]c(S(=O)(=O)N[C@@H]2CCc3c([nH]c4ccccc34)C2)cc1C(=O)N1CCCC1` [Compound 46, (R)-5-methyl-4-(pyrrolidine-1-carbonyl)-N-(2,3,4,9-tetrahydro-1H-carbazol-2-yl)-1H-pyrrole-2-sulfonamide], the AC1.4 was 0.2277 µM.

Take `Cc1[nH]c(S(=O)(=O)N[C@@H]2CCc3c([nH]c4ccccc34)C2)cc1C(=O)N1CCCCC1` [Compound 47, (R)-5-methyl-4-(piperidine-1-carbonyl)-N-(2,3,4,9-tetrahydro-1H-carbazol-2-yl)-1H-pyrrole-2-sulfonamide]: the AC1.4 worked out at 1.9857 µM.

On to `Cc1[nH]c(S(=O)(=O)N[C@@H]2CCc3c([nH]c4ccccc34)C2)cc1C(=O)N1CC(C)(C#N)C1` [Compound 48, (R)-4-(3-cyano-3-methylazetidine-1-carbonyl)-5-methyl-N-(2,3,4,9-tetrahydro-1H-carbazol-2-yl)-1H-pyrrole-2-sulfonamide], for which the AC1.4 is 0.04675 µM.

Consider `Cc1[nH]c(S(=O)(=O)Nc2ccc(N3C[C@H](C)C[C@@H](C)C3)nc2)cc1C(=O)N1CC(F)(F)C1` [Compound 49, 4-(3,3-Difluoroazetidine-1-carbonyl)-N-(6-((3R,5R)-3,5-dimethylpiperidin-1-yl)pyridin-3-yl)-5-methyl-1H-pyrrole-2-sulfonamide], for which the AC1.4 came out at 2.9024 µM.

Turning to `Cc1[nH]c(S(=O)(=O)N[C@H]2C[C@H](c3cccc(Cl)c3)C2)cc1C(=O)N1CC(C)(C#N)C1` [Compound 50, N-((trans)-3-(3-chlorophenyl)cyclobutyl)-4-(3-cyano-3-methylazetidine-1-carbonyl)-5-methyl-1H-pyrrole-2-sulfonamide], the AC1.4 was found to be 0.5466 µM.

For `Cc1[nH]c(S(=O)(=O)N[C@H]2C[C@H](c3cccc(F)c3)C2)cc1C(=O)N1CC(C)(C#N)C1` [Compound 51, 4-(3-Cyano-3-methylazetidine-1-carbonyl)-N-((trans)-3-(3-fluorophenyl)cyclobutyl)-5-methyl-1H-pyrrole-2-sulfonamide], the AC1.4 stood at 2.8889 µM.
